Results on three molecules are retold here after patent US20130310356A1, “METHOD FOR TREATING BRAIN CANCER” (Niiki Pharma Acquisition Corp. 2, priority 2010, published 2013).

Assay [1] deals with U87. The settings on record: cited from earlier work.
In assay [2] the test system is T98G. To be noted: cited from earlier work.
For assay [3], the system named is U373. The settings on record: cited from earlier work.
Assay [4] has as its system human glioblastoma cell line U251. The assay is described as follows: ATCC MTT Cell Proliferation Assay, U251. The assay is classed as cell-based. The settings on record: U251, 72 hours treatment. How it is done:
Tris(8-quinolinolato)gallium(III) and temozolomide were tested in human glioblastoma cell line U251 (which is resistant to BCNU, See Beljanski et al., Anticancer Res., 13(6A):2301-8 (1993)). Specifically, ATCC's MTT Cell Proliferation Assay® was performed using glioblastoma cell line U251. Stock cultures were allowed to grow to 70-80% confluence for this study. The anti-proliferative activity of tris(8-quinolinolato)gallium(III) or temozolomide against the cell line was evaluated in vitro using the ATCC's MTT Cell Proliferation Assay (Catalog No. 30-1010K). Cultures were maintained in a 37° C. humidified 5% CO2/95% air atmosphere. The cells were treated with tris(8-quinolinolato)gallium(III) or temozolomide at 1,000 μM, or a series of 4x dilutions thereof (250 μM, 62.5 μM, etc.). 100 μl of medium was removed from each well at 72 hours post-treatment and 10 μl MTT reagent was added to each well. The plates were incubated at 37° C. for 4 hours and then 100 μl of detergent was added. The plates were left overnight at room temperature in the dark and was read on a plate reader using SoftMax® Pro (version 5.2, Molecular Devices).
The absorbance data was analyzed as follows: Absorbance values were converted to Percent of Control and plotted against test agent concentrations for IC50 calculations using SoftMax® Pro (version 5.2, Molecular Devices). The plate blank signal average was subtracted from all wells prior to calculating the Percent of Control. Percent of Control values were calculated by dividing the absorbance values for each test well by the No Drug Control average (column 11 values; cells +vehicle control) and multiplying by 100. Plots of Compound Concentration versus Percent of Control were analyzed using the 4-parameter equation to obtain IC50 values and other parameters that describe the sigmoidal dose response curve.
The IC50 value for the test agent was estimated by curve-fitting the data using the following four parameter-logistic equation: […]

Assay [5] has as its system glioma cell line U87. The assay is described as follows: 3-dimentional tumor model (HuBiogel), MTT assay and Calcein AM live-cell staining. It is filed as cell-based. How it is done:
The compound tris(8-quinolinolato)gallium(III) was tested in a 3-dimentional tumor model derived from glioma cell line U87. Specifically, cells were trypsinized, washed, counted by trypan blue exclusion. Tumor beads were then prepared by mixing 20,000 cells/10 μl of HuBiogel (4 mg/mL) (See U.S. patent application Ser. No. 10/546,506, which is incorporated herein by reference). The 3-D tumor beads were cultivated for 72 hours in multi-well plates with complete media (10% FBS) in a 37° C. incubator +5% CO2. Mini-tumors were treated with various concentrations of the test compound tris(8-quinolinolato)gallium(III) in media (final 0.2-0.3% DMSO) or control (DMSO). Repeated drug treatment was done by removing the culture media and replacing with fresh media with drug compound or DMSO. On Day 3, MTT assay and live-cell staining with Calcein AM were performed (5 beads/assay set).
Statistical analysis of data sets (Average, T-test, GI-50) was performed using MS-Excel program. The average GI-50 (the drug concentration required for growth inhibition at 50%) is 0.94 μM.

The subject of assay [6] is T98G. Nature of the assay: MTT assay, glioblastoma cell line T98G. The assay is classed as cell-based. Here is the method: (§1) To test the activities of tris(8-quinolinolato)gallium(III) (“drug”), MTT assays were performed using glioblastoma cell lines. Cells were plated (2×10^3 cells in 100 μl/well) in 96-well plates and allowed to recover for 24 hours. The drug was added in another 100 μl growth medium and incubated with cultured cells for 3 hours before the cell culture medium was replaced to remove the drug. Cell death was measured 72 hours after the initial incubation by MTT assay following the manufacturer's recommendations (EZ4U, Biomedica, Vienna, Austria).

The subject of assay [7] is U373. The assay is described as follows: MTT assay, glioblastoma cell line U373. The settings on record: drug incubated 3 hours, MTT 72 hours after initial incubation. The assay is classed as cell-based. Here is the method: as §1
Assay [8] relates to U87. The assay is described as follows: MTT assay, glioblastoma cell line U87. It is filed as cell-based. How it is done: as §1
Assay [9] relates to ACHU. Nature of the assay: MTT assay, glioblastoma cell line ACHU. The assay is classed as cell-based. To be noted: drug incubated 3 hours, MTT 72 hours after initial incubation. Here is the method: as §1

SMILES strings stand for the structures.

Regarding `O=NN(CCCl)C(=O)NCCCl` [BCNU], the “BCNU (% cytostasis with 50 μg/ml BCNU)” value was 18.5 ± 8.2% in assay [1], 37.5 ± 8.6% in [2] and 30.4 ± 8.6% in assay [3]. The molecule further had an IC50 in assay [4] of 53.7 µM.

As to `Cn1nnc2c(C(N)=O)ncn2c1=O` [temozolomide], in assay [4] (Homo sapiens, U-251), the IC50 was determined as 283 µM.

On to `[Ga+3].[O-]c1cccc2cccnc12.[O-]c1cccc2cccnc12.[O-]c1cccc2cccnc12` [tris(8-quinolinolato)gallium(III)], for which, in [5] (U87 3-D tumor beads in HuBiogel, MTT on Day 3, read-out: average GI-50 (drug concentration required for growth inhibition at 50%)), the GI50 was 0.94 µM. Also, the “tumor killing in live-cell staining/image analysis” value in [5] (U87 3-D tumor beads, Calcein AM, Day 3) is “dose-dependent tumor killing”. In assay [5] (U87 3-D tumor beads, MTT, Day 3), the “tumor proliferation activity” value was “significantly inhibited”. Besides, the IC50 in [6] (drug incubated 3 hours, MTT 72 hours after initial incubation) is 2 µM; in assay [7], 2.5 µM; in assay [8] (U87, drug incubated 3 hours, MTT 72 hours after initial incubation), 0.94 µM; in [4], 4.04 µM; in [9], 0.3 µM. For the same molecule, the “activity in cells” value in [6] (resistant to temozolomide) is reported as “active”. The “activity against cell line” value in [8] (U87, relatively resistant to BCNU) is “active”.
